Tests used:
[1] = HPLC assay for profiling solution reactivity and stability of purine fragments (probes) with amino acid mimetics; assay type: physicochemical; details: for reaction with butanethiol: cysteine mimetic
Protocol: HPLC assay for profiling solution reactivity and stability of purine fragments: The following reagents were prepared and stored on ice prior to use. 0.1 molar (M) solution of caffeine in acetonitrile, 1.0 M solution of amino acid mimetic (butanethiol—cysteine mimetic; n-butylamine—lysine mimetic; p-cresol—tyrosine mimetic; propionamide-asparagine/glutamine mimetic; butyric acid—aspartic/glutamic acid mimetic), tetramethylguanidine (TMG), 1 M acetic acid (HOAc) in acetonitrile (ACN) and 10 mM solution of purine fragment in ACN mixture. 500 μL of fragment solution were transferred to a dram vial on ice. To the mixture, 5.5 μL of TMG and 5.5 μL of respective amino acid mimetic were added and solutions were stirred on ice for 6 h. To monitor reactivity, 50 μL aliquots were removed at indicated time points and quenched with 10 μL of a 1:1 mixture of caffeine and HOAc. Samples were injected (1 μL) and analyzed by reverse-phase HPLC on a Shimadzu 1100 Series spectrometer (Shimadzu Corporation, Kyoto, Japan) with UV detection at 254 nm. Reaction progress was evaluated by monitoring consumption of starting material (purine fragment) normalized to caffeine standard. Chromatographic separation was performed using a Phenomenex Kinetex C18 column (2.6 μm, 50×4.6 mm; Phenomenex, Torrance, Calif., United States of America). Mobile phases A and B were composed of H2O+0.1% HOAc and ACN+0.1% HOAc, respectively. […] All purine fragment peak AUCs used for calculations were normalized to caffeine standard AUCs at respective time points to account for run-to-run variations by HPLC. The amount of purine fragment consumed (% starting material) was plotted as a function of time.
Discussion: An HPLC assay for determining the reactivity of the purine-based probes with mimetics of amino acid residues was performed. […] Reaction progress was monitored by monitoring the disappearance of starting material and appearance of product via HPLC.

DM93 cells = assay: Live cell activity of purine probes, gel-based (CuAAC rhodamine-azide, in-gel fluorescence); details: for labeling profile in live cells: DM93 cells, 25 μM, 4 hours
Protocol: Live Cell Activity Method: DM93 cells were grown at 37° C. in 5% CO2 until 90% confluent. Once confluent cells were washed with serum free media and treated with halogenated purine probes at a final concentration of 25 μM (unless stated) for 4 hours (unless stated). Cells were then scraped and washed 3× with cold PBS and lysed in PBS+protease inhibitor. Lysates were spun at 100,000×g for 45 minutes. Halogen probe-modified proteins in soluble fractions were visualized by conjugating rhodamine-azide using copper-catalyzed azide-alkyne cycloaddition (CuAAC; 1 hour, room temperature), subjected to SDS-PAGE, and detected by in-gel fluorescence scanning. SDS-PAGE gels were also stained with Coomassie brilliant blue to determine protein load. All samples were loaded with equivalent amounts of protein. Thus, changes in purine probe labeling is not due to loading of different proteome amounts.

[2] = system: DM93 cells lysates (soluble fractions); assay: Lysate activity of purine probes, gel-based (in-gel fluorescence); assay type: biochemical; details: for protein labeling activity in lysates: DM93 soluble fractions, 25 μM, 2 hrs, 37° C.
Protocol: Lysate Activity Method: DM93 cells were grown at 37° C. in 5% CO2 until 90% confluent. Once confluent, cells were scraped and washed 3× times with cold PBS and lysed in PBS+protease inhibitor. Lysates were spun at 100,000×g for 45 minutes. Soluble fractions were treated with 25 μM of halogenated purine probes (unless stated) for 2 hrs (unless stated) at 37° C. Purine probe modified proteins were conjugated to rhodamine-azide by CuAAC, subjected to SDS-PAGE analysis, and detected by in-gel fluorescence scanning. SDS-PAGE gels were stained with Coomassie brilliant blue to determine protein load.

C57Bl/6 mice = assay: In vivo activity of purine probes in mouse tissues, gel-based; details: for time of peak / most robust labeling in vivo: 20 mg/kg probe
Protocol: Mouse Treatment and Tissue Preparation Methods: 8-12 week old male and female C57Bl/6 mice were treated intraperitoneally (IP) or by oral gavage (OG) with either AHL125 (Pu-1 or AHL-Pu-1), AHL128 (Pu-2 or AHL-Pu-2), or vehicle (18:1:2, PBS:PEG40:DMSO) at 20 mg/kg unless stated otherwise. Treatment time is indicated in the experiment below. Mice were then euthanized and perfused using PBS. Tissues were then harvested, rinsed and flash frozen using liquid nitrogen and stored at −80° C. until further use. Tissues were lysed using dounce homgenization in the presence of PBS+protease inhibitor. Initial suspensions were centrifuged at 3000×g for 5 minutes to remove insoluble material. The lysate was collected and centrifuged again at 100,000×g for 45 minutes to obtain the soluble fraction. Purine probe modified proteins from treated mice were conjugated to rhodamine-azide by CuAAC, subjected to SDS-PAGE analysis, and detected by in-gel fluorescence scanning. SDS-PAGE gels were stained with Coomassie brilliant blue to determine protein load. All samples were loaded with equivalent amounts of protein. Thus, changes in purine probe labeling is not due to loading of different proteome amounts.
Mice were also treated with 80 mg/kg oral gavage (OG) to determine whether purine probes are orally bioavailable. Mice were treated for four hours.

[3] = system: proteomes of DM93, Hela, A549, HEK293T, and Jurkat cells; assay: Quantitative chemical proteomics (LC-MS) of Pu-1 and Pu-2 modified proteins; assay type: cell-based, HUMAN
Protocol: Cells were grown at 37° C. in 5% CO2 until 90% confluent. Once confluent cells were washed with serum free media and treated with purine probes (Pu-1, Pu-2) at a final concentration of 25 μM for 4 hours. Cells were then scraped and washed 3× with cold PBS and lysed in PBS+protease inhibitor. Lysates were spun at 100,000×g for 45 minutes. Purine probe-modified proteins in soluble fractions were coupled to desthiobiotin-azide using copper-catalyzed azide-alkyne cycloaddition (CuAAC; 1 hour, room temperature), probe-modified proteins digested into peptides using trypsin protease, probe-modified peptides enriched by avidin affinity chromatography, and subjected to LC-MS quantitative chemical proteomics as previously described.^15 The following cell lines were used for analysis: DM93, Hela, A549, HEK293T, and Jurkat. […]
Chemical proteomics performed as described in Example 9 determined several protein modification sites targeted by Pu-1 and/or Pu-2. […]

With `C#CCn1cnc2c(Cl)nc(Cl)nc21` [Pu-2, 2,6-Dichloro-9-(prop-2-yn-1-yl)-9H-purine] the reaction with butanethiol ([1]; on ice 6 h) was “react with butanethiol”, the “reactivity with lysine mimetic” value ([1]; n-butylamine, on ice 6 h) was “mild lysine (Lys) reactivity” and the “labeling profile in live cells” value (DM93 cells) was “robust labeling profiles”. The “time dependence of labeling” value (DM93 cells; live cells) was “react in a time dependent manner”, the “protein labeling activity in lysates” value [2] was “highest protein labeling activity” and the “time dependence of labeling” value ([2]; proteomes) was “time dependence in protein labeling”. For the same compound, the “time of peak / most robust labeling in vivo” value (C57Bl/6 mice) was 4 h, the “Number of Unique Modified Residues” value ([3]; Arginine (R)) was 19 and the “Percentage of Modified Residues” value ([3]; Arginine (R)) was 1.6%. For the same compound, the “Number of Unique Modified Residues” value ([3]; Asparagine (N)) was 0, the “Percentage of Modified Residues” value ([3]; Asparagine (N)) was 0% and the “Number of Unique Modified Residues” value ([3]; Aspartic Acid (D)) was 44. For the same compound, the “Percentage of Modified Residues” value ([3]; Aspartic Acid (D)) was 3.7%, the “Number of Unique Modified Residues” value ([3]; Cysteine (C), Byonic score>300) was 952 and the “Percentage of Modified Residues” value ([3]; Cysteine (C), Byonic score>300) was 80%. The “Number of Unique Modified Residues” value ([3]; Glutamic Acid (E)) was 68, the “Percentage of Modified Residues” value ([3]; Glutamic Acid (E)) was 5.7% and the “Number of Unique Modified Residues” value ([3]; Glutamine (Q)) was 39. The “Percentage of Modified Residues” value ([3]; Glutamine (Q)) was 3.3%, the “Number of Unique Modified Residues” value ([3]; Histidine (H)) was 12 and the “Percentage of Modified Residues” value ([3]; Histidine (H)) was 1.0%. The “Number of Unique Modified Residues” value ([3]; Lysine (K)) was 24, the “Percentage of Modified Residues” value ([3]; Lysine (K)) was 2.0% and the “Number of Unique Modified Residues” value ([3]; Methionine (M)) was 7. The “Percentage of Modified Residues” value ([3]; Methionine (M)) was 0.59%, the “Number of Unique Modified Residues” value ([3]; Serine (S)) was 5 and the “Percentage of Modified Residues” value ([3]; Serine (S)) was 0.42%. For the same compound, the “Number of Unique Modified Residues” value ([3]; Threonine (T)) was 6, the “Percentage of Modified Residues” value ([3]; Threonine (T)) was 0.50% and the “Number of Unique Modified Residues” value ([3]; Tryptophan (W)) was 3. The “Percentage of Modified Residues” value ([3]; Tryptophan (W)) was 0.25%, the “Number of Unique Modified Residues” value ([3]; Tyrosine (Y)) was 17 and the “Percentage of Modified Residues” value ([3]; Tyrosine (Y)) was 21.4%.

For `C#CCn1cnc2nc(Cl)nc(Cl)c21` [Pu-1, 2,6-Dichloro-7-(prop-2-yn-1-yl)-7H-purine], the “solution-based reactivity with amino acid mimetics” value ([1]; HPLC, % starting material consumed, on ice 6 h) was “modifies cysteine (Cys) and tyrosine (Tyr) amino acid mimetics”, the “reaction kinetics compared to N9 counterparts” value ([1]; butanethiol, versus Pu-2, Pu-4, Pu-10) was “accelerated reaction kinetics” and the “reactivity towards nucleophilic attack, N7 versus N9 tautomer” value ([1]; compared with Pu-2) was “more reactive towards nucleophilic attack”. The reaction with butanethiol ([1]; on ice 6 h) was “react with butanethiol”, the “labeling profile in live cells” value (DM93 cells) was “robust labeling profiles” and the “reactivity of N7 versus N9 tautomers” value (DM93 cells; live DM93 cells) was “more reactive”. The “concentration dependence of labeling” value (DM93 cells; live cells) was “concentration dependent labeling”, the “time dependence of labeling” value (DM93 cells; live cells) was “react in a time dependent manner” and the “protein labeling activity in lysates” value [2] was “highest protein labeling activity”. For the same compound, the “reactivity of N7 versus N9 tautomers” value ([2]; lysates) was “more reactive”, the “concentration dependence of labeling” value ([2]; proteomes) was “concentration dependent labeling of proteomes” and the “time dependence of labeling” value ([2]; proteomes) was “time dependence in protein labeling”. For the same compound, the “tissue with highest activity” value (C57Bl/6 mice) was “highest activity in lung”, the “time of peak / most robust labeling in vivo” value (C57Bl/6 mice) was 2 h and the “labeling profile in vivo across tissues” value (C57Bl/6 mice; IP or OG, lung, liver, spleen, heart, brain, kidney, WAT) was “most robust labeling profile in vivo”. The “Number of Unique Modified Residues” value ([3]; Arginine (R)) was 2, the “Percentage of Modified Residues” value ([3]; Arginine (R)) was 0.84% and the “Number of Unique Modified Residues” value ([3]; Asparagine (N)) was 0. For the same compound, the “Percentage of Modified Residues” value ([3]; Asparagine (N)) was 0%, the “Number of Unique Modified Residues” value ([3]; Aspartic Acid (D)) was 9 and the “Percentage of Modified Residues” value ([3]; Aspartic Acid (D)) was 3.8%. For the same compound, the “Number of Unique Modified Residues” value ([3]; Cysteine (C), Byonic score>300) was 196, the “Percentage of Modified Residues” value ([3]; Cysteine (C), Byonic score>300) was 82% and the “Number of Unique Modified Residues” value ([3]; Glutamic Acid (E)) was 12. For the same compound, the “Percentage of Modified Residues” value ([3]; Glutamic Acid (E)) was 5.0%, the “Number of Unique Modified Residues” value ([3]; Glutamine (Q)) was 3 and the “Percentage of Modified Residues” value ([3]; Glutamine (Q)) was 1.3%. For the same compound, the “Number of Unique Modified Residues” value ([3]; Histidine (H)) was 1, the “Percentage of Modified Residues” value ([3]; Histidine (H)) was 0.42% and the “Number of Unique Modified Residues” value ([3]; Lysine (K)) was 4. The “Percentage of Modified Residues” value ([3]; Lysine (K)) was 1.7%, the “Number of Unique Modified Residues” value ([3]; Methionine (M)) was 2 and the “Percentage of Modified Residues” value ([3]; Methionine (M)) was 0.84%. The “Number of Unique Modified Residues” value ([3]; Serine (S)) was 1, the “Percentage of Modified Residues” value ([3]; Serine (S)) was 0.42% and the “Number of Unique Modified Residues” value ([3]; Threonine (T)) was 2. For the same compound, the “Percentage of Modified Residues” value ([3]; Threonine (T)) was 0.84%, the “Number of Unique Modified Residues” value ([3]; Tryptophan (W)) was 1 and the “Percentage of Modified Residues” value ([3]; Tryptophan (W)) was 0.42%. For the same compound, the “Number of Unique Modified Residues” value ([3]; Tyrosine (Y)) was 6 and the “Percentage of Modified Residues” value ([3]; Tyrosine (Y)) was 2.5%.
